# From ChEMBL document CHEMBL5113473, “Synthesis and biological evaluation of new 2‑substituted‑4‑amino-quinolines and -quinazoline as potential antifungal agents” (Bioorg Med Chem Lett, 2022)
# Calls of active or inactive are those of the source. No cut-off for these calls is given here.
# Columns and labels:
# [1] = tested on: Candida tropicalis; assay: Antifungal activity against Candida tropicalis ATCC 1369 assessed as reduction in fungal growth by CLSI protocol based broth microdilution method; type: functional
# [2] = tested on: Candida albicans; assay: Antifungal activity against Candida albicans ATCC 10231 assessed as reduction in fungal growth by CLSI protocol based broth microdilution method; type: functional
# [3] = tested on: Aspergillus fumigatus; assay: Antifungal activity against Aspergillus fumigatus AS 3.3913 assessed as reduction in fungal growth by CLSI protocol based broth microdilution method; type: functional
# [4] = tested on: Cryptococcus neoformans; assay: Antifungal activity against Cryptococcus neoformans ATCC 32045 assessed as reduction in fungal growth by CLSI protocol based broth microdilution method; type: functional
# [5] = tested on: Candida albicans; assay: Fungistatic activity against Candida albicans ATCC 10231 assessed as reduction in fungal growth at 2 to 4 times MIC incubated for 36 hrs by Time kill assay; type: functional, organism-based; details: DDE = dose-dependent effect
# [6] = tested on: Candida albicans; assay: Antibiofilm activity against Candida albicans ATCC 10231 assessed as inhibition of biofilm viability by XTT reduction assay; type: functional, organism-based
# [7] = Cytotoxicity against human HUVEC cells assessed as reduction in cell viability by CCK-8 assay; type: toxicity, cell-based
# [8] = Selectivity index, ration of CC50 for cytotoxicity against human HUVEC cells to MIC for antifungal activity against Candida albicans ATCC 10231; type: toxicity, cell-based; details: read-out: Selectivity Index
# [9] = tested on: Candida albicans; assay: Fungistatic activity against Candida albicans ATCC 10231 assessed as reduction in fungal growth at 4 times MIC incubated for 12 hrs by Time kill assay; type: functional, organism-based
# [10] = Metabolic stability in mouse plasma assessed as parent compound remaining at 2 to 8 times; type: ADME, cell-free
# [11] = tested on: Cell membrane; assay: Induction of cell membrane damage in Candida albicans ATCC 10231 at 2 to 4 times MIC by propidium iodide staining based fluorescence assay
# [12] = tested on: Candida albicans; assay: Antifungal activity against Candida albicans ATCC 10231 assessed as resistance development by measuring increase in MIC at 0.5 ug/ml after 20 passages by CLSI protocol based broth microdilution method; type: functional; details: dose 0.5 µg/ml
SMILES,MIC [1] [µg/mL],MIC [2] [µg/mL],MIC [3] [µg/mL],MIC [4] [µg/mL],Activity [5],Activity [6],CC50 [7] [µM],selectivity ratio [8],Activity [9],Stability [10] [%],Activity [11],MIC [12] [µg/mL]
Cc1ccc(Nc2cc(-c3ccccc3)nc3ccccc23)cc1.Cl,32,32,64,32,,,,,,,,
Cc1ccc(Nc2cc(C)nc3ccccc23)cc1.Cl,256,256,128,256,,,,,,,,
Cc1ccc(Nc2cc(-c3ccco3)nc3ccccc23)cc1.Cl,16,32,128,32,,,,,,,,
Cc1ccc(Nc2nc(-c3ccccc3)nc3ccccc23)cc1.Cl,> 512,> 512,> 512,> 512,,,,,,,,
Cc1ccc(Nc2cc(-c3ccc(C)cc3)nc3ccccc23)cc1.Cl,16,8,4,8,Dde,Active,36,1.63,Active,80,,
Cc1ccc(Nc2cc(-c3cccc(C(F)(F)F)c3)nc3ccccc23)cc1.Cl,512,> 512,> 512,512,,,,,,,,
C[C@@H]1[C@H](O)[C@@H](C)/C=C/C=C/C=C/C=C/C=C/C=C/C=C/[C@H](O[C@@H]2O[C@H](C)[C@@H](O)[C@H](N)[C@@H]2O)C[C@@H]2O[C@](O)(C[C@@H](O)C[C@@H](O)[C@H](O)CC[C@@H](O)C[C@@H](O)CC(=O)O[C@H]1C)C[C@H](O)[C@H]2C(=O)O [AMPHOTERICIN B],4,1,> 512,1,Dde,,4.92,4.55,,,Active,128
CCN(c1ccc(C)cc1)c1cc(-c2ccccc2OC)nc2ccccc12,256,> 512,256,16,,,,,,,,
Cc1ccc(Nc2cc(-c3ccc(C(C)(C)C)cc3)nc3ccccc23)cc1.Cl,32,32,2,4,,,,,,,,
Cc1ccc(Nc2cc(-c3ccc4ccccc4c3)nc3ccccc23)cc1.Cl,256,128,64,4,,,,,,,,
Cc1ccc(Nc2cc(C3CCCCC3)nc3ccccc23)cc1.Cl,16,16,> 512,32,,,,,,,,
COc1ccc(-c2cc(Nc3ccc(C)cc3)c3ccccc3n2)cc1.Cl,16,16,8,8,,,,,,,,
Cc1ccc(Nc2cc(C3CCC3)nc3ccccc23)cc1.Cl,64,128,64,64,,,,,,,,
CCN(c1ccc(C)cc1)c1cc(-c2cccc(C)c2)nc2ccccc12,512,512,512,64,,,,,,,,
Cc1ccc(Nc2cc(-c3ccccc3Cl)nc3ccccc23)cc1.Cl,64,> 512,512,8,,,,,,,,
Cc1ccc(Nc2cc(-c3ccc(F)cc3)nc3ccccc23)cc1.Cl,> 512,> 512,> 512,> 512,,,,,,,,
Cc1ccc(Nc2cc(-c3cccs3)nc3ccccc23)cc1.Cl,16,8,16,4,,,,,,,,
Cc1ccc(Nc2cc(-c3ccc(Cl)cc3)nc3ccccc23)cc1.Cl,128,64,> 512,32,,,,,,,,

SMILES,MIC [1] [µg/mL],MIC [2] [µg/mL],MIC [3] [µg/mL],MIC [4] [µg/mL],Activity [5],Activity [6],CC50 [7] [µM],selectivity ratio [8],Activity [9],Stability [10] [%],Activity [11],MIC [12] [µg/mL]
Cc1ccc(Nc2cc(-c3cccc(F)c3)nc3ccccc23)cc1.Cl,> 512,> 512,> 512,> 512,,,,,,,,
Cc1ccc(Nc2cc(C3CC3)nc3ccccc23)cc1.Cl,128,128,512,32,,,,,,,,
CCN(c1ccc(C)cc1)c1cc(-c2ccc(C)cc2)nc2ccccc12,> 512,> 512,512,128,,,,,,,,
Cc1ccc(Nc2cc(-c3ccccc3C(F)(F)F)nc3ccccc23)cc1.Cl,256,> 512,128,4,,,,,,,,
COc1ccccc1-c1cc(Nc2ccc(C)cc2)c2ccccc2n1.Cl,32,32,8,32,,,,,,,,
COc1cccc(-c2cc(Nc3ccc(C)cc3)c3ccccc3n2)c1.Cl,16,8,32,16,,,,,,,,
Cc1ccc(Nc2cc(-c3cccnc3)nc3ccccc23)cc1.Cl,256,512,> 512,> 512,,,,,,,,
Cc1ccc(Nc2cc(-c3cccc(C)c3)nc3ccccc23)cc1.Cl,32,8,128,128,,,,,,,,
Cc1ccc(Nc2cc(C3CCCC3)nc3ccccc23)cc1.Cl,32,64,16,64,,,,,,,,
Cc1ccc(Nc2cc(-c3ccc(C(F)(F)F)cc3)nc3ccccc23)cc1.Cl,> 512,> 512,> 512,16,,,,,,,,
Cc1ccc(Nc2cc(-c3ccc(Br)cc3)nc3ccccc23)cc1.Cl,> 512,> 512,> 512,512,,,,,,,,
Cc1ccc(Nc2cc(-c3ccccc3C)nc3ccccc23)cc1.Cl,32,16,32,32,,,,,,,,
Cc1ccc(Nc2cc(-c3ccccc3Br)nc3ccccc23)cc1.Cl,128,> 512,64,8,,,,,,,,
Cc1ccc(Nc2cc(-c3cccc(Cl)c3)nc3ccccc23)cc1.Cl,> 512,> 512,> 512,> 512,,,,,,,,
Cc1ccc(Nc2cc(-c3cccc(Br)c3)nc3ccccc23)cc1.Cl,> 512,> 512,> 512,> 512,,,,,,,,
Cc1ccc(Nc2cc(-c3ccccc3F)nc3ccccc23)cc1.Cl,> 512,> 512,> 512,> 512,,,,,,,,
Cc1ccc(Nc2ccnc3ccccc23)cc1.Cl,512,256,128,256,,,,,,,,
